{
  "source": "patent US20240307383A1",
  "about": "(AstraZeneca AB, priority 2023, published 2024)",
  "key": {"[1]": {"tested_on": "patients having chronic kidney disease", "assay": "UACR change from baseline over 12 weeks (Example 3, FIG. 5)", "format": "in vivo, human", "settings": "dapagliflozin 10 mg alone; plateau over 12-week period; UACR>700 mg/g"}, "[2]": {"tested_on": "healthy volunteers and patients with type 2 diabetes", "settings": "cited from earlier work"}, "[3]": {"tested_on": "patients having chronic kidney disease", "assay": "Systolic blood pressure change from baseline, all participants (Example 3, FIG. 6, Table 10B)", "format": "in vivo, human"}, "[4]": {"tested_on": "patients having chronic kidney disease", "assay": "Systolic blood pressure change from baseline, participants having UACR >700 mg/g (FIG. 7A, Table 11A)", "format": "in vivo, human", "settings": "for Systolic blood pressure, mean change from baseline: Dapa 10 mg + placebo, UACR >700 mg/g"}, "[5]": {"tested_on": "patients having chronic kidney disease", "assay": "Diastolic blood pressure change from baseline, participants having UACR >700 mg/g (FIG. 7B, Table 11B)", "format": "in vivo, human", "settings": "for Diastolic blood pressure, mean change from baseline: Dapa 10 mg + placebo, UACR >700 mg/g"}, "[6]": {"settings": "observations so far; cited from earlier work"}, "pregnant rabbits": {"tested_on": "pregnant rabbits", "settings": "period of major embryonic organogenesis; cited from earlier work"}, "[7]": {"tested_on": "patients with type 2 diabetes and CKD", "settings": "post hoc analysis of the CREDENCE trial; cited from earlier work"}, "[8]": {"settings": "dapagliflozin 10 mg + placebo, end of 12-week period, UACR>700 mg/g"}},
  "note": "Like-named read-outs stand apart in the source and are kept apart here.",
  "data": [
    {"molecule": "CCOc1ccc(Cc2cc([C@@H]3O[C@H](CO)[C@@H](O)[C@H](O)[C@H]3O)ccc2Cl)cc1", "note": "[dapagliflozin, (1S)-1,5-anhydro-1-{4-chloro-3-[(4-ethoxyphenyl)methyl]phenyl}-D-glucitol]", "values": [
      {"measurement": "Mean percent decrease of UACR from baseline", "setting": "[1]", "value": "approximately 20%"},
      {"measurement": "Well tolerated dose", "setting": "[2]; repeat dose testing for 14 days in healthy volunteers and patients with type 2 diabetes", "value": "up to 100 mg/day"},
      {"measurement": "Well tolerated dose", "setting": "[2]; single dose testing in healthy volunteers", "value": "up to 500 mg/day"},
      {"measurement": "Systolic blood pressure, mean change", "setting": "[3]; Dapa 10 mg + placebo, all participants", "value": "−3.4"},
      {"measurement": "Decrease in systolic blood pressure from baseline", "setting": "[3]; dapagliflozin 10 mg + placebo, 12-week period, all participants", "value": 3.4, "unit": "%"},
      {"measurement": "Systolic blood pressure after final planned dose", "setting": "[3]; dapagliflozin 10 mg + placebo, week 14", "value": "returned to baseline levels"},
      {"measurement": "Systolic blood pressure, mean change from baseline", "setting": "[4]; Week 1", "value": "−5.7"},
      {"measurement": "Systolic blood pressure, mean change from baseline", "setting": "[4]; Week 3", "value": "−6.1"},
      {"measurement": "Systolic blood pressure, mean change from baseline", "setting": "[4]; Week 6", "value": "−6.5"},
      {"measurement": "Systolic blood pressure, mean change from baseline", "setting": "[4]; Week 9", "value": "−2.9"},
      {"measurement": "Systolic blood pressure, mean change from baseline", "setting": "[4]; Week 12", "value": "−4.6"},
      {"measurement": "Mean reduction in systolic blood pressure from baseline", "setting": "[4]; [8]", "value": "over 4%"},
      {"measurement": "Diastolic blood pressure, mean change from baseline", "setting": "[5]; Week 1", "value": "−2.9"},
      {"measurement": "Diastolic blood pressure, mean change from baseline", "setting": "[5]; Week 3", "value": "−2.4"},
      {"measurement": "Diastolic blood pressure, mean change from baseline", "setting": "[5]; Week 6", "value": "−2.7"},
      {"measurement": "Diastolic blood pressure, mean change from baseline", "setting": "[5]; Week 9", "value": "−2.0"},
      {"measurement": "Diastolic blood pressure, mean change from baseline", "setting": "[5]; Week 12", "value": "−2.2"},
      {"measurement": "Mean reduction in diastolic blood pressure relative to baseline", "setting": "[5]; [8]", "value": "approximately 2%"}
    ]},
    {"molecule": "COc1nc(C)cnc1NS(=O)(=O)c1cccnc1-c1ccc(-c2nnco2)cc1", "note": "[zibotentan, N-(3-methoxy-5-methylpyrazin-2-yl)-2-[4-(1,3,4-oxadiazol-2-yl)phenyl]pyridine-3-sulfonamide]", "values": [
      {"measurement": "Hepatotoxicity", "setting": "[6]", "value": "has not been observed"},
      {"measurement": "Dose levels causing teratogenic effects", "setting": "pregnant rabbits", "value": "≥ 1", "unit": "mg/kg/day"}
    ]},
    {"molecule": "Cc1ccc([C@@H]2O[C@H](CO)[C@@H](O)[C@H](O)[C@H]2O)cc1Cc1ccc(-c2ccc(F)cc2)s1", "note": "[canagliflozin]", "values": [
      {"measurement": "Effect on UACR levels", "setting": "[7]", "value": "failed to reduce UACR levels below 300 mg/g in a substantial number of patients"}
    ]}
  ]
}
